From the NIST ThermoML archive (doi:10.1007/s10765-008-0444-7)

Assays:
[1] = 101.3 kPa, Liquid; for viscosity: Capillary tube (Ostwald / Ubbelohde) method; for mass density: Pycnometric method
[2] = xn = mol fraction of the nth substance listed; details: 101 kPa, Liquid; for viscosity: Capillary tube (Ostwald / Ubbelohde) method; for mass density: Pycnometric method

CO [methanol]
[1]
Details	mass density [kg/m3]	viscosity [mPa·s]
293 K	791.1	0.591
303 K	781.9	0.518
313 K	772.4	0.45

Clc1ccccc1 [chlorobenzene] + CO
[2]
Details	mass density, 293 K [kg/m3]	mass density, 303 K [kg/m3]	mass density, 313 K [kg/m3]	viscosity, 293 K [mPa·s]	viscosity, 303 K [mPa·s]	viscosity, 313 K [mPa·s]
x2 = 0	1105.8	1095	1082	0.8432	0.721	0.6247
x2 = 0.2808	1066.5	1056	1044	0.8312	0.7121	0.6157
x2 = 0.4676	1029.2	1019	1007	0.8209	0.6924	0.6041
x2 = 0.601	993.9	983.7	972.5	0.8018	0.6821	0.5832
x2 = 0.7009	960.5	950.4	939.4	0.7699	0.6572	0.5569
x2 = 0.7783	928.8	918.9	908.1	0.7256	0.6093	0.5296
x2 = 0.8405	898.5	888.8	878.3	0.692	0.5828	0.51
x2 = 0.8913	869.7	860.1	849.9	0.6766	0.5672	0.4961
x2 = 0.9335	842.3	832.9	822.9	0.6424	0.5401	0.4701
x2 = 0.9693	816.2	806.8	797.1	0.6194	0.528	0.4591

Brc1ccccc1 [bromobenzene] + CO
[2]
Details	mass density, 293 K [kg/m3]	mass density, 303 K [kg/m3]	mass density, 313 K [kg/m3]	viscosity, 293 K [mPa·s]	viscosity, 303 K [mPa·s]	viscosity, 313 K [mPa·s]
x2 = 0	1497	1483	1467	1.164	0.9844	0.8786
x2 = 0.3528	1381	1367	1352	1.124	0.9306	0.8142
x2 = 0.5504	1280	1267	1253	1.008	0.8356	0.7399
x2 = 0.6775	1192	1179	1166	0.8873	0.742	0.6444
x2 = 0.7657	1114	1102	1089	0.8144	0.6962	0.6019
x2 = 0.8305	1045	1033	1021	0.7619	0.6467	0.5686
x2 = 0.8802	983	972.1	960.7	0.7235	0.617	0.5451
x2 = 0.9195	927.6	917.2	906.4	0.686	0.5891	0.513
x2 = 0.9552	871.4	861.5	851.1	0.657	0.5651	0.49
x2 = 0.9778	832.3	822.8	812.9	0.6312	0.5344	0.4773

Clc1ccccc1 [chlorobenzene]
[1]
Details	mass density [kg/m3]	viscosity [mPa·s]
293 K	1105.8	0.8432
303 K	1095	0.721
313 K	1082	0.6247

CO [methanol] + Clc1ccccc1
[2], x1 = 1
Details	mass density [kg/m3]	viscosity [mPa·s]
293 K	791.1	0.591
303 K	781.9	0.518
313 K	772.4	0.45

CO [methanol] + Brc1ccccc1
[2], x1 = 1
Details	mass density [kg/m3]	viscosity [mPa·s]
293 K	791.1	0.591
303 K	781.9	0.518
313 K	772.4	0.45

Brc1ccccc1 [bromobenzene]
[1]
Details	mass density [kg/m3]	viscosity [mPa·s]
293 K	1497	1.164
303 K	1483	0.9844
313 K	1467	0.8786
